Where “and” joins values, the source holds several entries; their conditions need not be identical. Identical values can stand only once. Marks after values point to notes of the source that are not given here.

The subject of one assay is supragingival plaque. As to the kind of experiment: Clinical trial: microbial composition of supragingival plaque (16S rRNA gene sequencing), whole community. In kind it is in vivo, human. An excerpt: Following the completion of the examination and supragingival plaque collection, participants received a supragingival scaling, clean and prophylaxis of all their teeth. At the completion of the last examination for leg 3, each participant received a professional fluoride treatment.
Participants had all supragingival plaque collected from the buccal surfaces of their maxillary molars (teeth 17, 16, 26 & 27) with a sterile scaling instrument. The plaque samples from each tooth were placed in separate sterile tubes, to give four samples per participant.
Genomic DNA was extracted from the plaque using a combination of mechanical disruption of the cells via a Precellys homogeniser and the chemical extraction and purification of the genomic DNA via the PowerLyzer PowerSoil DNA Isolation Kit (MoBio). Quantitation of the extracted DNA was achieved using a Qubit dsDNA High Sensitivity Assay kit (ThermoFisher), before 5 ng DNA was used as template in a PCR reaction that amplified the V4 variable region of the 16S ribosomal RNA gene and individually barcoded the PCR product from each sample. The barcoded DNA was then sequenced using an Ion Torrent Personal Genome machine and Torrent Suite™ Software (ThermoFisher).
Analysis of the resulting sequence of the 16S ribosomal RNA gene enabled identification of the bacterial population present in each sample, down to the species level. […]
The individual 16S rDNA sequences produced for each sample were used to both classify the microbial lineages present (grouped as species level taxa) and determine the abundances of each taxon. Differences in the bacterial community over time was determined by measuring the changes in the relative taxon abundances for each individual.

The subject of assay [1] is enamel substratum of the polymicrobial biofilm caries model. As to the kind of experiment: Enamel subsurface demineralization in the polymicrobial biofilm caries model (transverse microradiography). The settings on record: for integrated mineral loss ΔZd / lesion depth LD: twice daily 10 min pulses, mean ± SD. Further details: species or system human. On the procedure: To model supragingival plaque six representative oral bacterial species, Streptococcus sanguinis (NCTC 7863), Streptococcus mutans Ingbritt, Actinomyces naeslundii (NCTC 10301), Veillonella parvula (ATCC 17745), Lactobacillus casei (NCDO 161) and Fusobacterium nucleatum (ATCC 10953) (Table 5) were cultured as a polymicrobial biofilm on a human enamel substratum in a constant-depth film fermenter (CDFF; Cardiff University, UK). The CDFF was housed in a 37° C. incubator under anaerobic conditions which were maintained by a constant flow of 5% CO2 in N2 at 1 L/h. The CDFF contained 15 removable polytetrafluoroethylene (PTFE) pans on a circular platform that was rotated at a constant speed of three rpm. The biofilms were grown on three enamel blocks (see below) in each PTFE pan using an artificial saliva medium (ASM, 2.5 g/L mucin type II (porcine, gastric, Sigma), 2.0 g/L bacteriological peptone (Oxoid), 2.0 g/L tryptone (Oxoid), 1.0 g/L yeast extract (Oxoid), 0.35 g/L NaCl, 0.2 g/L KCl, 0.2 mg/L vitamin K, 1 mg/L haemin and 0.1 g/L cysteine hydrochloride) at a constant flow rate of 30 mL/h. Prior to inoculation, the CDFF pan surfaces were conditioned for 24 h with ASM at a flow rate of 10 mL/h (McBain et al (2003) J Appl Microbiol. 94(4):655-66). In order to mimic in vivo bacterial growth conditions in the oral cavity with dietary sugar intake and to provide a high cariogenic challenge, a 1% (w/v) sucrose solution in ASM was pumped into the CDFF four times a day at four hourly intervals with a flow rate of 30 mL/h for 10 min.
Three treatments were applied to the polymicrobial biofilms: 290 ppm fluoride with 220 ppm fluoride as SnF2 and 70 ppm fluoride as NaF (referred to as SnF2), 2% CPP-ACP and 2% CPP-ACP-SnF2. These treatments were compared with the control in which the test solution was replaced with ASM. Each treatment was applied using two 10 min pulses of the test solution in ASM with a flow rate of 30 mL/h. The first pulse started 30 min prior to the first sucrose pulse of the morning and the second started 3 h 30 min after the final sucrose pulse of the day.
On day 6, 12 and 19 after inoculation four pans were removed aseptically from the CDFF and replaced with blank sterile pans. Enamel blocks from the pans were removed for bacterial enumeration and transverse microradiography.
Three hundred and sixty extracted human third molars were obtained under University of Melbourne ethics approval (HREC #1237616) and sterilized by exposure to 4.1 kGy of gamma radiation. Enamel blocks were cut from the teeth with approximately 6×3×3 mm dimensions using a water-cooled diamond blade saw (Minitom, Struers) and polished using a RotoPol/RotoForce lapping instrument with 1200, 2400, 4000 grit lapping papers (Struers) and 3 and 1 μm diamond polishing pastes (Struers). The blocks were positioned in custom made CDFF pans at a depth of 100 μm and sealed in place with yellow sticky wax (Kemdent) and sterilized by exposure to 4.1 kGy of gamma radiation.
Transverse microradiography was carried out essentially as described previously [Shen et al 2011]. […] The lesion depth (μm) was determined as the distance to the point at which the mineral content reaches 95% of the sound enamel value. The integrated mineral loss (IML), represented as ΔZd, was calculated by trapezoidal integration as the area between the sound-enamel densitometric profile and that of the demineralized enamel densitometric profile in vol % min·μm.

As to “Casein phosphopeptide-amorphous calcium phosphate [CPP-ACP]”, in the assay with supragingival plaque (56.4 mg CPP-ACP gum, 20 min six times per day, 14 days), the “increases in commensal/beneficial species at the 56.4 mg dose compared with the 18.8 mg dose” value is recorded as “significantly greater”. Further, the “proportion of pathogenic species (pathobionts)” value in the assay with supragingival plaque (CPP-ACP gum, 14 days, vs no treatment) is “concomitant reduction”. Further, the “proportion of the health-associated symbionts” value in the assay with supragingival plaque (CPP-ACP treatment, randomised controlled clinical study) is “significant increase”. Also, the “integrated mineral loss ΔZd” value in assay [1] (Day 6) was 572.9 ± 97.80 vol % min · μm; in assay [1] (Day 12), 1075.3 ± 148.0^ad vol % min · μm; in assay [1] (Day 19) it was 2105.4 ± 346.2^bd vol % min · μm. Besides, the “lesion depth LD” value is reported as 15.0 ± 2.1^a μm in assay [1] (Day 6), 26.3 ± 4.4^ade μm in assay [1] (Day 12) and 52.3 ± 3.2^ad μm in assay [1] (Day 19). The substance further had a rate of demineralization in assay [1] (between day 6 and day 19) of 112.1 vol % min·μm/day. For the same substance, the “reduction in rate of demineralization relative to control” value in assay [1] (between day 6 and day 19, twice daily exposure) was 50.2% and 50%.

The values are drawn from patent publication US11717536B2, “Treatment for periodontitis” (THE UNIVERSITY OF MELBOURNE, priority 2017, dated 2023).
